Measured values: patent publication US8697747B2, “Enhancing coagulation or reducing fibrinolysis” (THe UAB Research Foundation, priority 2009, dated 2014)

What was measured:
[1] = test system: Factor XIII (FXIII) deficient plasma; test: Thrombelastographic coagulation kinetics, Celite-activated FXIII deficient plasma; type: biochemical, human
Procedure: Pooled normal plasma (George King Bio-Medical, Overland Park, Kans.) anticoagulated with sodium citrate was utilized for experimentation. […] Factor XIII (FXIII) deficient plasma anticoagulated with sodium citrate was also obtained from George King Bio-Medical (Overland Park, Kans.).
Plasma Sample Composition. The final volume for all subsequently described plasma sample mixtures was 359.4 μL. […] (Motterlini et al., Expert Opin Investig Drugs, 14:1305-1318 (2005), which is incorporated by reference herein in its entirety).
Clot Lifespan Model Analyses. Plasma sample mixtures were placed in a disposable cup in a computer-controlled THROMBELASTOGRAPH® hemostasis system (Model 5000, Haemoscope Corp., Niles, Ill.), with addition of CaCl2 as the last step to initiate clotting. Data were collected for 15 minutes, as normal plasma completes thrombus formation within this interval in this system (Dong et al., Eur J Pharmacol 590:99-104 (2008)).
Statistical Analyses. Data are presented as mean±SD. All conditions described were represented with n=8 experiments, as n=6-8 typically provides statistical power>0.8 in similar analyses (Nielsen et al., Acta Anaesthesiol Scand 49:222-231 (2005) and Nielsen et al., Blood Coagul Fibrinolysis 17:75-81 (2006)). Analyses of the effects of CORM-2 and iCORM-2 on thrombelastographic variables were conducted using one way analysis of variance with the Holm-Sidak test used for post hoc comparisons. Graphical representation of the data was generated with commercially available software (Origin 7.5, OriginLab Corp., Northampton, Mass.). A P value of ≦0.05 was considered significant.

[2] = aqueous solution pH=7.4, 37° C.; cited from earlier work
pooled normal plasma = test: CLSM thrombelastography with tPA in undiluted and 30% diluted plasma; type: biochemical, human; conditions: tPA 100 IU/mL, 100 μM CORM-2, median, n=8
Source text: Plasma and volume expanders. Pooled normal plasma (George King Bio-Medical, Overland Park, Kans.) anticoagulated with sodium citrate was utilized for experimentation. […] The volume expanders tested were 0.9% NaCl (Abbott Laboratories, North Chicago, Ill.; also designated as NS) and 6% hydroxylethyl starch (HES) in 0.9% NaCl (VOLUVEN®, average molecular weight 130 kDa, 0.4 degree of substitution, C2:C6 ratio of substitution 11.2; Fresenius Kabi, Bad Homburg, Germany; also referred to as VOL).
Plasma sample composition of experiments with tissue-type plasminogen activator addition. As in the first series of experiments, the final volume of plasma sample mixtures was 359.6 μL. Sample composition consisted of 316 μL of plasma/volume expander, 10 μL of tissue factor reagent (0.1% final concentration), 3.6 μL of DMSO without or with CORM-2 (100 μM final concentration), 10 μL of tissue-type plasminogen activator (tPA, 580 U/μg, Genentech, Inc., San Francisco, Calif.) diluted with 10 mM potassium phosphate buffer (pH 7.4) for a final activity of 100 IU/mL, and 20 μL of 200 mM CaCl2. As with tissue factor reagent, tPA stock was kept on ice prior to use and was remade every two hours. Plasma was diluted 0% or 30% with NS or VOL (n=8 per condition).
Clot Lifespan Model (CLSM) Analyses. Plasma sample mixtures were placed in a disposable cup in a computer-controlled THROMBELASTOGRAPH® hemostasis system (Model 5000, Haemoscope Corp., Niles, Ill.), with addition of CaCl2 as the last step to initiate clotting. In the first series of experiments, no tPA was added, so data were collected until clot strength (maximum amplitude) was stable. In the second series of experiments which in tPA was added, data were collected until clot lysis time occurred. […] Additional elastic modulus-based parameters were determined and the nomenclature used to describe these phenomena is as follows: Time to maximum rate of thrombus generation (TMRTG): This is the time interval (sec) observed prior to maximum speed of clot growth. Maximum rate of thrombus generation (MRTG): This is the maximum velocity of clot growth observed (dynes/cm^2/sec). Total Thrombus Generation (TTG): This is the total area under the velocity curve during clot growth (dynes/cm^2), representing the amount of clot strength generated during clot growth. Time to maximum rate of lysis (TMRL): This is the time interval (sec) measured from the time of maximum strength to the time when the velocity of clot disintegration is maximal. Maximum Rate of Lysis (MRL): This is the maximum velocity of clot disintegration observed (−dynes/cm^2/sec). Area of Clot Lysis (ACL): This is the total area under the velocity curve during clot disintegration (−dynes/cm^2), representing the amount of clot strength lost during clot disintegration. As this model involves complete fibrinolysis, TTG is equivalent to ACL, so ACL was not presented as it provides no additional information.
Statistical Analyses. Data obtained from pooled normal plasma not exposed to tPA were graphically represented with commercially available software (SigmaPlot 11.0, Systat Software, Inc., San Jose, Calif.), and kinetic modeling of thrombelastographic data performed with the same software. Analyses of the effects of hemodilution and CORM-2 on CLSM variables obtained from pooled normal plasma were conducted using Kruskal-Wallis one way analysis of variance with Student-Newman-Keuls post-hoc test. […] These analyses were conducted with the same commercially available software (SigmaPlot 11.0). A P value of <0.05 was considered significant.

[3] = pure (43.5 mg/mL) or up to three-fold diluted fibrinogen solution
Source text: Exposure of purified fibrinogen to CORM-2. Experiments with purified fibrinogen pre-exposure to CORM-2 were to be performed in a similar fashion as that described with prothrombin. […] Therefore, a concentration-response relationship between various fibrinogen concentrations with or without the addition of CORM-2 was generated as outlined subsequently.

[4] = 100 μM, Celite-activated FXIII deficient plasma, mean ± SD, n=8

Q: Which results are given for `[C-]#[O+].[C-]#[O+].[C-]#[O+].[C-]#[O+].[C-]#[O+].[C-]#[O+].[Cl][Ru][Cl].[Cl][Ru][Cl]` [CORM-2, tricarbonyldichlororuthenium (II) dimer]?
A: MRTG (maximum rate of thrombus generation) [1, 4]: 9.1 ± 1.2 dynes/cm^2/sec; TMRTG (time to maximum rate of thrombus generation) [1, 4]: 296 ± 13 s; TTG (total thrombus generation) [1, 4]: 163 ± 21 dynes/cm^2; equivalent replacement of FXIII activity with regard to enhancement of coagulation kinetics ([1]; addition to FXIII-deficient plasma): 100%; CO released from every mole of CORM-2 [2]: 0.75 mol; CGT (clot growth time) (pooled normal plasma; plasma diluted 30% with NS): 8.0 min; CLS (clot lifespan) (pooled normal plasma; plasma diluted 30% with NS): 38.7 min; CLT (clot lysis time) (pooled normal plasma; plasma diluted 30% with NS): 31.5 min; MRL (maximum rate of lysis) (pooled normal plasma; plasma diluted 30% with NS): −1.9 −dynes/cm^2/sec; MRTG (maximum rate of thrombus generation) (pooled normal plasma; plasma diluted 30% with NS): 11.2 dynes/cm^2/sec; TMRL (time to maximum rate of lysis) (pooled normal plasma; plasma diluted 30% with NS): 23.4 min; TMRTG (time to maximum rate of thrombus generation) (pooled normal plasma; plasma diluted 30% with NS): 2.00 min; TTG (total thrombus generation) (pooled normal plasma; plasma diluted 30% with NS): 206 dynes/cm^2; CGT (clot growth time) (pooled normal plasma; plasma diluted 30% with VOL): 2.2 min; CLS (clot lifespan) (pooled normal plasma; plasma diluted 30% with VOL): 10.0 min; CLT (clot lysis time) (pooled normal plasma; plasma diluted 30% with VOL): 8.0 min; MRL (maximum rate of lysis) (pooled normal plasma; plasma diluted 30% with VOL): −0.9 −dynes/cm^2/sec; MRTG (maximum rate of thrombus generation) (pooled normal plasma; plasma diluted 30% with VOL): 3.8 dynes/cm^2/sec; TMRL (time to maximum rate of lysis) (pooled normal plasma; plasma diluted 30% with VOL): 5.2 min; TMRTG (time to maximum rate of thrombus generation) (pooled normal plasma; plasma diluted 30% with VOL): 2.0 min; TTG (total thrombus generation) (pooled normal plasma; plasma diluted 30% with VOL): 62 dynes/cm^2; CGT (clot growth time) (pooled normal plasma; undiluted plasma): 8.1 min; CLS (clot lifespan) (pooled normal plasma; undiluted plasma): 31.6 min; CLT (clot lysis time) (pooled normal plasma; undiluted plasma): 24.3 min; MRL (maximum rate of lysis) (pooled normal plasma; undiluted plasma): −3.0 −dynes/cm^2/sec; MRTG (maximum rate of thrombus generation) (pooled normal plasma; undiluted plasma): 13.9 dynes/cm^2/sec; TMRL (time to maximum rate of lysis) (pooled normal plasma; undiluted plasma): 17.7 min; TMRTG (time to maximum rate of thrombus generation) (pooled normal plasma; undiluted plasma): 2.1 min; TTG (total thrombus generation) (pooled normal plasma; undiluted plasma): 285 dynes/cm^2; solubility of CORM-2 in DMSO added to purified fibrinogen solution [3]: not soluble
